The test system of data set [1] is human-derived lymphoma DoHH-2 cell line. Briefly: Human-derived lymphoma DoHH-2 subcutaneous xenograft in CB17/SCID female immunodeficient mice. The class given is in vivo, mouse. The note with it: 50 mg/kg p.o. BID, Day 24. The method, then:
In Example 8, the anti-tumor effects of p-toluenesulfonate of Compound A at various dosages by intragastric administration on human-derived lymphoma DoHH-2 cell line subcutaneous transplantation CB17/SCID female immunodeficient mouse model were evaluated.
7-9-week-old CB17/SCID female immunodeficient mice were subcutaneously inoculated with […] DoHH-2 cells to establish a subcutaneous human lymphoma xenograft tumor model. When the average tumor volume in the mice reached 68 mm^3, the mice were randomly divided into groups and dosed on the day of grouping. The treatment method for each treatment group and vehicle control group was as follows:
p-toluenesulfonate of Compound A (Sample 6), given 100 mg/kg (p.o. QD) group, once daily, for 25 days (days 0-24);
p-toluenesulfonate of Compound A (Sample 6), given 30 mg/kg (p.o. QD) group, once daily, for 25 days (days 0-24);
positive treatment group (Duvelisib, purchased from Shanghai Lollane biological technology Co., Ltd.), given 50 mg/kg (p.o. BID) twice daily with an interval of 12 h, for 24 days; and
vehicle control group (5% DMSO/40% PEG400/55% water, by volume) (p.o. QD), given once daily, for 25 days (days 0-24).
There were 10 mice in each group, and all the mice were administered starting on the day of grouping (Day 0) and euthanized on Day 24 after grouping (Day 24). The efficacy was evaluated according to the tumor volume at the end point of the experiment.
The abbreviation p.o. stood for oral gavage, QD stood for once daily, and BID stood for twice daily.
The relative tumor inhibition rate (TGI) was calculated by the following formula: […]
T and C were respectively the average tumor volumes in the experimental group and the vehicle control group at a specific time point.
(In general: Xenograft models place foreign cells or tissue in a host animal.)

The nature of data set [2]: Solid stability, 40° C./75% RH and 60° C., one week (HPLC purity, XRPD). The class given is physicochemical. The note with it: solid. On the procedure: Appropriate amounts of Compound A and p-toluenesulfonate of Compound A (Sample 5, crystal form I) were respectively placed in 40° C./75% RH and 60° C. environments for one week to determine solid stability. At days 0 and 7, HPLC purity analysis and solid XRPD determination were carried out, and some of the results were as shown in Table 7.

A short description of data set [3]: Solubility in simulated gastrointestinal fluids (SGF, FeSSIF, FaSSIF) at 37° C. Type of data set: physicochemical. The note with it: for Solubility: 37° C. On the procedure: The solubilities of Compound A and p-toluenesulfonate (Sample 5, crystal form I) in simulated gastrointestinal fluids (SGF, FeSSIF and FaSSIF) at 37° C. were tested.
About 7.5 mg of Compound A and p-toluenesulfonate were separately added to 1.5 mL of three biological vehicles to prepare suspensions. All the suspensions were placed in a shaker at 37° C. and shaken at 200 rpm for 24 h, and about 0.5 mL was sampled separately at 0.5 h, 2 h and 24 h for filtration. The obtained filtrates were subjected to HPLC analysis and pH measurement, and the filter cakes were respectively measured by XRPD.

≈ marks a conversion by molar mass, not a printed value. Where “and” joins values, the source holds several entries; their conditions need not be identical. Equal values may be shown once.

On to `C[C@H](Nc1ncnc2nc[nH]c12)c1cc2cccc(Cl)c2c(=O)n1-c1ccccc1` [Duvelisib, reference compound], for which, in data set [1], the average tumor volume amounted to 1496.12 mm^3 and the “relative tumor inhibition rate (TGI)” value amounted to 30%.
For `C[C@H](Nc1nc(N)nc(N)c1C#N)c1cc2ccc(F)cc2nc1-c1ccccn1` [Compound A], the “Purity (peak area %) Average - 40° C./75% RH - 7 d” value in data set [2] (40° C./75% RH, 7 d, average) amounted to 98.49 peak area %. Further, in data set [2] (40° C./75% RH, 7 d, single determinations), the “Purity (peak area %) 40° C./75% RH - 7 d” value was 98.52 peak area % and 98.45 peak area %. In data set [2] (60° C., 7 d, average), the “Purity (peak area %) Average - 60° C. - 7 d” value came out at 98.43 peak area %. In addition, the “Purity (peak area %) 60° C. - 7 d” value in data set [2] (60° C., 7 d, single determinations) was 98.37 peak area % and 98.50 peak area %. Also, the “decrease of chemical purity” value in data set [2] (60° C., 7 days) is recorded as “about 0.16%”. The “Purity (peak area %) Average - 0 d” value in data set [2] (day 0, average) came to 98.59 peak area %. The “Purity (peak area %) 0 d” value in data set [2] (day 0, single determinations) was 98.63 peak area % and 98.55 peak area %. The pH of filtrate is listed as 6.55 in data set [3] (FaSSIF (pH 6.52), 0.5 h); 6.51 in data set [3] (FaSSIF (pH 6.52), 2 h); 6.34 in data set [3] (FaSSIF (pH 6.52), 24 h); 5.00 in data set [3] (FeSSIF (pH 4.99), 0.5 h); 4.94 in data set [3] (FeSSIF (pH 4.99), 2 h); 4.86 in data set [3] (FeSSIF (pH 4.99), 24 h). Moreover, the pH of filtrate is 1.19 in data set [3] (SGF (pH 1.21), 0.5 h); 1.16 in data set [3] (SGF (pH 1.21), 2 h); 1.18 in data set [3] (SGF (pH 1.21), 24 h). The solubility (in general, the dissolved amount per volume that the medium holds) at 30 min in data set [3] (FaSSIF, 37 °C, pH 6.52, fassif, thermodynamic from solid, FaSSIF (pH 6.52), 30 min) was 370 µg/mL (≈ 924 µM). This molecule came in with a solubility at 2 h in data set [3] (FaSSIF, 37 °C, pH 6.52, fassif, thermodynamic from solid, FaSSIF (pH 6.52), 2 h) of 320 µg/mL (≈ 799 µM). Also, the solubility at 24 h in data set [3] (FaSSIF, 37 °C, pH 6.52, fassif, thermodynamic from solid, FaSSIF (pH 6.52), 24 h) was 350 µg/mL (≈ 874 µM). The Solubility – broadly, the dissolved amount per volume that the medium holds – in data set [3] (FeSSIF (pH 4.99), 30 min) was 2060 µg/mL (≈ 5140 µM); in data set [3] (FeSSIF (pH 4.99), 2 h), 1890 µg/mL (≈ 4720 µM); in data set [3] (FeSSIF (pH 4.99), 24 h), 2200 µg/mL (≈ 5490 µM); in data set [3] (SGF (pH 1.21), 30 min) it was more than 4920 µg/mL; in data set [3] (SGF (pH 1.21), 2 h), more than 4910 µg/mL; in data set [3] (SGF (pH 1.21), 24 h), more than 4830 µg/mL.

(Values after patent US20240182407A1, “QUINOLINE COMPOUND SALT OR CRYSTAL FORM, PREPARATION METHOD THEREFOR, AND APPLICATION THEREOF” (Nanjing Zenshine Pharmaceuticals Co., Ltd., priority 2021, published 2024).)
